Here are results for 5 compounds from US8501755B2, “Tetrahydropyridothienopyrimidine compounds and methods of use thereof” (Bayer Intellectual Property GmbH, priority 2006, dated 2013).

Holding throughout (assay type): cell-based
The subject of one experiment is A431 cells. Description: In vitro tumor cell proliferation assay (Cell Titer-Glo) in A431 cells. To be noted: Homo sapiens, A-431, 72 h, A431 human epidermoid carcinoma overexpressing HER1; 72 hours exposure; read-out: IC50, activities in A431 cell lines. A digest of the protocol:
(§1)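 Viability after 72 h drug exposure at 37 °C was read as CellTiter-Glo ATP luminescence, giving IC50. Cells (2.5×10^3/well, RPMI + 10% FBS) were compound-treated one day post-seeding, 0.1% DMSO final: A431 overexpresses HER1, N87 overexpresses HER2 and HER1.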

Another experiment relates to N87. Description: In vitro tumor cell proliferation assay (Cell Titer-Glo) in N87 cells. To be noted: N87 human gastric carcinoma overexpressing HER2 and HER1; 72 hours exposure; read-out: IC50, activities in N87 cell lines. A digest of the protocol: as §1
For orientation: In ATP-based viability assays light output follows the ATP content of the culture.

The next experiment relates to H1975 cells. In words: In vitro tumor cell proliferation assay (Cell Titer-Glo) in H1975 cells. To be noted: NCI-H1975; H1975 human NSCLC expressing mutant HER1 (L858R,T790M); 72 hours exposure; read-out: IC50, activities in H 1975 cell lines. A digest of the protocol:
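After 72 h compound exposure at 37° C (top 10 uM down to 64 pM, 0.1% DMSO), viability of EGFR L858R/T790M-mutant H1975 cells was read as ATP luminescence.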

Regarding `O=C(/C=C/CN1CCCC1)N1CCc2c(sc3ncnc(Nc4ccc(OCc5cnccn5)c(Cl)c4)c23)C1` [Example 83, N-[3-chloro-4-(pyrazin-2-ylmethoxy)phenyl]-7-[(2E)-4-pyrrolidin-1-ylbut-2-enoyl]-5,6,7,8-tetrahydropyrido [4′3′:4,5]thieno[2,3-d]pyrimidin-4-amine], the IC50 (usually the concentration that gives 50% inhibition) was 1000 to 10000 nM in the experiment with A431 cells, below 200 nM in the experiment on N87 and 200 to 1000 nM with H1975 cells.

As for `CCN(C/C=C/C(=O)N1CCc2c(sc3ncnc(Nc4cccc(Br)c4)c23)C1)C(C)C` [Example 204, N-(3-bromophenyl)-7-{(2E)-4-[ethyl(isopropyl)amino]but-2-enoyl}-5,6,7,8-tetrahydropyrido [4′,3′:4,5]thieno[2,3-d]pyrimidin-4-amine], the IC50 was 200 to 1000 nM in the experiment on A431 cells, below 200 nM with N87 and 200 to 1000 nM in the experiment on H1975 cells.

For `O=C(/C=C/CN1CCCC1)N1CCc2c(sc3ncnc(Nc4ccc(F)c(Cl)c4)c23)C1` [Example 21, N-(3-chloro-4-fluorophenyl)-7-[(2E)-4-pyrrolidin-1-ylbut-2-enoyl]-5,6,7,8-tetrahydropyrido [4′,3′:4,5]thieno[2,3-d]pyrimidin-4-amine], the IC50 in the experiment on A431 cells, with N87 and in the experiment with H1975 cells was below 200 nM in each case.

On to `CCN(C/C=C/C(=O)N1CCc2c(sc3ncnc(Nc4ccc(Cl)c(Cl)c4)c23)C1)C1CCCCC1` [Example 200, 7-{(2E)-4-[cyclohexyl(ethyl)amino]but-2-enoyl}-N-(3,4-dichlorophenyl)-5,6,7,8-tetrahydropyrido [4′,3′:4,5]thieno[2,3-d]pyrimidin-4-amine], for which the figures for the IC50 in the experiment on A431 cells, in the experiment on N87 and in the experiment with H1975 cells were 200 to 1000 nM, below 200 nM and 200 to 1000 nM, respectively.

As for `C=C(CN(CC)CC)C(=O)N1CCc2c(sc3ncnc(Nc4ccc(OCc5cccc(F)c5)c(Cl)c4)c23)C1` [Example 149, N-{3-chloro-4-[(3-fluorobenzyl)oxy]phenyl}-7-{2-[(diethylamino)methyl]acryloyl}-5,6,7,8-tetrahydropyrido [4′,3′:4,5]thieno[2,3-d]pyrimidin-4-amine], the concentration for half-maximal inhibition (IC50) was 200 to 1000 nM in the experiment with A431 cells, below 200 nM in the experiment on N87 and 200 to 1000 nM with H1975 cells.
